Tested on: MV-4-11 cells
Assay: Gene expression microarray analysis (Affymetrix PrimeView) and GSEA
Type: cell-based, human
Parameters: RFU PODN (11730768_x_at) / Fold change /veh PODN (11730768_x_at) / RFU LINC00158 (11744669_a_at) / Fold change /veh LINC00158 (11744669_a_at) / RFU DUSP10 (11751237_a_at) / Fold change /veh DUSP10 (11751237_a_at) / RFU ID3 (11757404_x_at) / Fold change /veh ID3 (11757404_x_at) / RFU PLEKHG5 (11737974_s_at) / Fold change /veh PLEKHG5 (11737974_s_at) / RFU LRRC4B (11730491_at) / Fold change /veh LRRC4B (11730491_at) / RFU GIMAP4 (11747438_a_at) / Fold change /veh GIMAP4 (11747438_a_at) / RFU KRT8 (11758183_x_at) / Fold change /veh KRT8 (11758183_x_at) / RFU CNN1 (11734310_a_at) / Fold change /veh CNN1 (11734310_a_at) / RFU VPS37D (11726825_at) / Fold change /veh VPS37D (11726825_at) / RFU C10orf10 (11716522_x_at) / Fold change /veh C10orf10 (11716522_x_at) / RFU KIR2DL2 /// KIR2DL4 /// KIR2DL5A /// KIR2DL5B /// KIR2DS1 /// KIR2DS2 /// KIR2DS3 /// KIR2DS4 /// KIR3DL3 /// KIR3DL3 /// KIR3DS1 (11738374_at) / Fold change /veh KIR2DL2 /// KIR2DL4 /// KIR2DL5A /// KIR2DL5B /// KIR2DS1 /// KIR2DS2 /// KIR2DS3 /// KIR2DS4 /// KIR3DL3 /// KIR3DL3 /// KIR3DS1 (11738374_at) / RFU C1QL1 (11718748_at) / Fold change /veh C1QL1 (11718748_at) / RFU TMPRSS4 (11747572_a_at) / Fold change /veh TMPRSS4 (11747572_a_at) / RFU HAMP (11756126_x_at) / Fold change /veh HAMP (11756126_x_at) / RFU RNFT2 (11725882_a_at) / Fold change /veh RNFT2 (11725882_a_at) / RFU NR4A2 (11747474_a_at) / Fold change /veh NR4A2 (11747474_a_at) / RFU ABCC12 (11746883_a_at) / Fold change /veh ABCC12 (11746883_a_at) / RFU TMEM136 (11760407_x_at) / Fold change /veh TMEM136 (11760407_x_at) / RFU CLDN22 /// WWC2 (11732394_at) / Fold change /veh CLDN22 /// WWC2 (11732394_at) / RFU HLA-DPB1 (11760878_x_at) / Fold change /veh HLA-DPB1 (11760878_x_at) / RFU SPINT1 (11716480_a_at) / Fold change /veh SPINT1 (11716480_a_at) / RFU GAP43 (11754022_s_at) / Fold change /veh GAP43 (11754022_s_at) / RFU A4GNT (11735810_at) / Fold change /veh A4GNT (11735810_at) / RFU PRB3 (11715151_x_at) / Fold change /veh PRB3 (11715151_x_at) / RFU TUBB4B (11761932_at) / Fold change /veh TUBB4B (11761932_at) / RFU CAPN14 (11732068_a_at) / Fold change /veh CAPN14 (11732068_a_at) / RFU TMCC2 (11721928_a_at) / Fold change /veh TMCC2 (11721928_a_at) / RFU IRGQ (11745062_a_at) / Fold change /veh IRGQ (11745062_a_at) / RFU FAM174B (11720279_a_at) / Fold change /veh FAM174B (11720279_a_at) / RFU TMPRSS4 (11748680_a_at) / Fold change /veh TMPRSS4 (11748680_a_at) / RFU FAM212B (11763350_a_at) / Fold change /veh FAM212B (11763350_a_at) / RFU PLEKHG5 (11743358_a_at) / Fold change /veh PLEKHG5 (11743358_a_at) / RFU ZSCAN30 (11745921_a_at) / Fold change /veh ZSCAN30 (11745921_a_at) / RFU CMKLR1 (11741424_a_at) / Fold change /veh CMKLR1 (11741424_a_at) / RFU LOC101060620 /// MAPK8IP1 (11723275_at) / Fold change /veh LOC101060620 /// MAPK8IP1 (11723275_at) / RFU SPTSSB (11747773_x_at) / Fold change /veh SPTSSB (11747773_x_at) / RFU PRSS12 (11739890_at) / Fold change /veh PRSS12 (11739890_at) / RFU BIN1 (11741810_x_at) / Fold change /veh BIN1 (11741810_x_at) / RFU WNT11 (11732464_a_at) / Fold change /veh WNT11 (11732464_a_at) / RFU C10orf10 (11716521_a_at) / Fold change /veh C10orf10 (11716521_a_at) / RFU C5orf56 (11738089_at) / Fold change /veh C5orf56 (11738089_at) / RFU CYB561 (11721691_x_at) / Fold change /veh CYB561 (11721691_x_at) / RFU ANKRD19P (11752326_a_at) / Fold change /veh ANKRD19P (11752326_a_at) / RFU OR2T12 /// OR2T33 /// OR2T8 (11738714_s_at) / Fold change /veh OR2T12 /// OR2T33 /// OR2T8 (11738714_s_at) / RFU VCAN (11748164_a_at) / Fold change /veh VCAN (11748164_a_at) / RFU JSRP1 (11732532_at) / Fold change /veh JSRP1 (11732532_at) / RFU KRTAP10-11 (11738290_x_at) / Fold change /veh KRTAP10-11 (11738290_x_at) / RFU MYO3A (11730013_a_at) / Fold change /veh MYO3A (11730013_a_at) / RFU EBF3 (11725865_a_at) / Fold change /veh EBF3 (11725865_a_at) / RFU CAMK2N1 (11719241_x_at) / Fold change /veh CAMK2N1 (11719241_x_at) / RFU C5orf56 (11738088_a_at) / Fold change /veh C5orf56 (11738088_a_at) / RFU OLFML3 (11715873_a_at) / Fold change /veh OLFML3 (11715873_a_at) / RFU LOC100653217 /// NTM (11731650_a_at) / Fold change /veh LOC100653217 /// NTM (11731650_a_at) / RFU MAPK11 (11762145_a_at) / Fold change /veh MAPK11 (11762145_a_at) / RFU FIZ1 (11724087_x_at) / Fold change /veh FIZ1 (11724087_x_at) / RFU OASL (11726364_x_at) / Fold change /veh OASL (11726364_x_at) / RFU SOX15 (11748057_x_at) / Fold change /veh SOX15 (11748057_x_at) / RFU CD79A (11719716_a_at) / Fold change /veh CD79A (11719716_a_at) / RFU HIST1H1D (11736915_at) / Fold change /veh HIST1H1D (11736915_at) / RFU CASKIN2 (11723855_a_at) / Fold change /veh CASKIN2 (11723855_a_at) / RFU LOC730098 (11760151_x_at) / Fold change /veh LOC730098 (11760151_x_at) / RFU OR4N2 (11742367_at) / Fold change /veh OR4N2 (11742367_at) / RFU PRRT2 (11749266_a_at) / Fold change /veh PRRT2 (11749266_a_at) / RFU SNX32 (11753110_a_at) / Fold change /veh SNX32 (11753110_a_at) / RFU CDHR5 (11726645_a_at) / Fold change /veh CDHR5 (11726645_a_at) / RFU RCAN1 (11760418_a_at) / Fold change /veh RCAN1 (11760418_a_at) / RFU FAM167A (11723789_a_at) / Fold change /veh FAM167A (11723789_a_at) / RFU FAM26E (11764081_at) / Fold change /veh FAM26E (11764081_at) / RFU ISYNA1 (11749810_s_at) / Fold change /veh ISYNA1 (11749810_s_at) / RFU ACY1 (11761880_at) / Fold change /veh ACY1 (11761880_at) / RFU 11764098_at / Fold change /veh 11764098_at / RFU SAMD14 (11745864_x_at) / Fold change /veh SAMD14 (11745864_x_at) / RFU NPB (11741838_a_at) / Fold change /veh NPB (11741838_a_at) / RFU TMPRSS6 (11731388_a_at) / Fold change /veh TMPRSS6 (11731388_a_at) / RFU KRTAP10-2 (11738614_at) / Fold change /veh KRTAP10-2 (11738614_at) / RFU ARHGAP8 /// PRR5-ARHGAP8 (11727945_x_at) / Fold change /veh ARHGAP8 /// PRR5-ARHGAP8 (11727945_x_at) / RFU KRTAP5-7 /// NADSYN1 (11734609_at) / Fold change /veh KRTAP5-7 /// NADSYN1 (11734609_at) / RFU RASL12 (11751679_a_at) / Fold change /veh RASL12 (11751679_a_at) / RFU CDKN2B (11736163_a_at) / Fold change /veh CDKN2B (11736163_a_at) / RFU PRF1 (11729649_at) / Fold change /veh PRF1 (11729649_at) / RFU, ZNF638 /// ZNF638-IT1 / Fold change vs veh, ZNF638 /// ZNF638-IT1 / RFU, PANK3 / Fold change vs veh, PANK3 / RFU, SH3YL1 / Fold change vs veh, SH3YL1 / RFU, ZEB2 / Fold change vs veh, ZEB2 / RFU, NRIP1 / Fold change vs veh, NRIP1 / RFU, PTTG1IP / Fold change vs veh, PTTG1IP / RFU, CAPN2 / Fold change vs veh, CAPN2 / RFU, MED14 / Fold change vs veh, MED14 / RFU, SNORA58 / Fold change vs veh, SNORA58 / RFU, C1orf63 / Fold change vs veh, C1orf63 / RFU, LRRFIP1 / Fold change vs veh, LRRFIP1 / RFU, NDUFAF7 / Fold change vs veh, NDUFAF7 / RFU, SLC12A2 / Fold change vs veh, SLC12A2 / RFU, IBTK / Fold change vs veh, IBTK / RFU, ESF1 / Fold change vs veh, ESF1 / Fold change vs veh, TMEM50B / RFU, TAOK1 / Fold change vs veh, TAOK1 / RFU, ACBD3 / Fold change vs veh, ACBD3 / RFU, TMA16 / Fold change vs veh, TMA16 / RFU, RWDD3 / Fold change vs veh, RWDD3 / RFU, BCAT1 / Fold change vs veh, BCAT1 / RFU, EDEM3 / Fold change vs veh, EDEM3 / RFU, TMEM33 / Fold change vs veh, TMEM33 / RFU, WDR75 / Fold change vs veh, WDR75 / RFU, AHCTF1 / Fold change vs veh, AHCTF1 / RFU, TFRC / Fold change vs veh, TFRC / RFU, ZDHHC17 / Fold change vs veh, ZDHHC17 / RFU, NOM1 / Fold change vs veh, NOM1 / RFU, ARL8B / Fold change vs veh, ARL8B / RFU, ZBTB11 / Fold change vs veh, ZBTB11 / RFU, TAMM41 / Fold change vs veh, TAMM41 / RFU, KIAA1704 /// LOC100996395 / Fold change vs veh, KIAA1704 /// LOC100996395 / RFU, ING1 / Fold change vs veh, ING1 / RFU, TRMT61B / Fold change vs veh, TRMT61B / RFU, FUBP3 / Fold change vs veh, FUBP3 / RFU, TP53 / Fold change vs veh, TP53 / RFU, TNKS2 / Fold change vs veh, TNKS2 / RFU, ZFP14 / Fold change vs veh, ZFP14 / RFU, ACTR2 / Fold change vs veh, ACTR2 / RFU, PPP3R1 / Fold change vs veh, PPP3R1 / RFU, PIK3R1 / Fold change vs veh, PIK3R1 / RFU, HNRNPA1 / Fold change vs veh, HNRNPA1 / RFU, RNF170 / Fold change vs veh, RNF170 / RFU, ZNF28 / Fold change vs veh, ZNF28 / RFU, RNGTT / Fold change vs veh, RNGTT / RFU, OGT / Fold change vs veh, OGT / RFU, BRD1 / Fold change vs veh, BRD1 / RFU, MARS / Fold change vs veh, MARS / RFU, ZNF655 / Fold change vs veh, ZNF655 / RFU, FAHD1 / Fold change vs veh, FAHD1 / RFU, BDP1 / Fold change vs veh, BDP1 / RFU, LRRCC1 / Fold change vs veh, LRRCC1 / RFU, ARID1A / Fold change vs veh, ARID1A / RFU, ZNF146 / Fold change vs veh, ZNF146 / RFU, ZNF330 / Fold change vs veh, ZNF330 / RFU, GPN3 / Fold change vs veh, GPN3 / RFU, C9orf123 / Fold change vs veh, C9orf123 / RFU, N4BP2L2 / Fold change vs veh, N4BP2L2 / RFU, ARFIP1 / Fold change vs veh, ARFIP1 / RFU, FAM179B / Fold change vs veh, FAM179B / RFU, BCL10 / Fold change vs veh, BCL10 / RFU, UHRF1BP1L / Fold change vs veh, UHRF1BP1L / RFU, BET1 / Fold change vs veh, BET1 / RFU, CNOT2 / Fold change vs veh, CNOT2 / RFU, ZNF268 / Fold change vs veh, ZNF268 / Fold change vs veh, ZNF507 / RFU, DGCR2 / Fold change vs veh, DGCR2 / RFU, WDSUB1 / Fold change vs veh, WDSUB1 / Fold change vs veh, HSP90B1 /// MIR3652 / RFU, ADSS / Fold change vs veh, ADSS / RFU, GK / Fold change vs veh, GK / RFU, ZNF148 / Fold change vs veh, ZNF148 / RFU, TAF9 / Fold change vs veh, TAF9 / RFU, SLC1A5 / Fold change vs veh, SLC1A5 / RFU, SLMO2 / Fold change vs veh, SLMO2 / RFU, ABCC4 / Fold change vs veh, ABCC4 / RFU, LOC101060439 /// RAP1B / Fold change vs veh, LOC101060439 /// RAP1B / RFU, RFX7 / Fold change vs veh, RFX7 / RFU, GTPBP10 / Fold change vs veh, GTPBP10 / RFU, CNEP1R1 / Fold change vs veh, CNEP1R1 / RFU, BIVM-ERCC5 /// ERCC5 / Fold change vs veh, BIVM-ERCC5 /// ERCC5 / RFU, ILF3 / Fold change vs veh, ILF3 / RFU 11762660_at / Fold change /veh 11762660_at / RFU VCAN (11757783_s_at) / Fold change /veh VCAN (11757783_s_at) / RFU DDX43 (11728927_at) / Fold change /veh DDX43 (11728927_at) / RFU KRT8 (11758188_x_at) / Fold change /veh KRT8 (11758188_x_at) / RFU NKD1 (11759106_at) / Fold change /veh NKD1 (11759106_at) / RFU SRD5A1 (11742802_a_at) / Fold change /veh SRD5A1 (11742802_a_at) / RFU TPSAB1 /// TPSB2 (11721975_s_at) / Fold change /veh TPSAB1 /// TPSB2 (11721975_s_at) / RFU GSTM3 (11746129_a_at) / Fold change /veh GSTM3 (11746129_a_at) / RFU IL23R (11737362_x_at) / Fold change /veh IL23R (11737362_x_at) / RFU TMEM51 (11727254_a_at) / Fold change /veh TMEM51 (11727254_a_at) / RFU PIWIL2 (11732686_x_at) / Fold change /veh PIWIL2 (11732686_x_at) / RFU ORM1 (11744905_x_at) / Fold change /veh ORM1 (11744905_x_at) / RFU CCDC152 (11743942_at) / Fold change /veh CCDC152 (11743942_at) / RFU ECM1 (11717891_a_at) / Fold change /veh ECM1 (11717891_a_at) / RFU IL23R (11748794_a_at) / Fold change /veh IL23R (11748794_a_at) / RFU TNFAIP8L3 (11732012_x_at) / Fold change /veh TNFAIP8L3 (11732012_x_at) / RFU MBOAT4 (11741988_at) / Fold change /veh MBOAT4 (11741988_at) / RFU 11764193_at / Fold change /veh 11764193_at / RFU TMEM53 (11763286_at) / Fold change /veh TMEM53 (11763286_at) / RFU MAGEB2 (11727129_at) / Fold change /veh MAGEB2 (11727129_at) / RFU TMEM200A (11744735_a_at) / Fold change /veh TMEM200A (11744735_a_at) / RFU CCDC152 (11751479_a_at) / Fold change /veh CCDC152 (11751479_a_at) / RFU FAM211A (11726209_a_at) / Fold change /veh FAM211A (11726209_a_at) / RFU RGS16 (11746705_a_at) / Fold change /veh RGS16 (11746705_a_at) / RFU VCAN (11755009_s_at) / Fold change /veh VCAN (11755009_s_at) / RFU RHOB (11743442_s_at) / Fold change /veh RHOB (11743442_s_at) / RFU RGS16 (11720943_a_at) / Fold change /veh RGS16 (11720943_a_at) / RFU RGS16 (11720944_at) / Fold change /veh RGS16 (11720944_at) / RFU, VPS4B / Fold change vs veh, VPS4B / RFU, CREB1 / Fold change vs veh, CREB1 / RFU, DNAJC13 / Fold change vs veh, DNAJC13 / RFU, GNAQ / Fold change vs veh, GNAQ / RFU, CDK5R1 / Fold change vs veh, CDK5R1 / RFU, ZRANB3 / Fold change vs veh, ZRANB3 / RFU, CUL4A / Fold change vs veh, CUL4A / RFU, CCNY / Fold change vs veh, CCNY / RFU, UFL1 / Fold change vs veh, UFL1 / RFU, COG3 / Fold change vs veh, COG3 / RFU, DIAPH2 / Fold change vs veh, DIAPH2 / RFU, SKA2 / Fold change vs veh, SKA2 / RFU, AFF3 / Fold change vs veh, AFF3 / RFU, LMF1 / Fold change vs veh, LMF1 / RFU, IPO11 / Fold change vs veh, IPO11 / RFU, DFFB / Fold change vs veh, DFFB / RFU, FOXP1 / Fold change vs veh, FOXP1 / RFU, CARD8 / Fold change vs veh, CARD8 / RFU, STRN3 / Fold change vs veh, STRN3 / RFU, ADK / Fold change vs veh, ADK / RFU, RASSF2 / Fold change vs veh, RASSF2 / RFU, WIPF1 / Fold change vs veh, WIPF1 / RFU, LARP1B / Fold change vs veh, LARP1B / RFU, RASA1 / Fold change vs veh, RASA1 / RFU, RB1 / Fold change vs veh, RB1 / RFU, PPFIA1 / Fold change vs veh, PPFIA1 / RFU, MAT2A / Fold change vs veh, MAT2A / RFU, CCT5 / Fold change vs veh, CCT5 / RFU, WDR92 / Fold change vs veh, WDR92 / RFU, CUX1 / Fold change vs veh, CUX1 / RFU, TTC7A / Fold change vs veh, TTC7A / RFU, TMEM135 / Fold change vs veh, TMEM135 / RFU, DEPTOR / Fold change vs veh, DEPTOR / RFU, CPM / Fold change vs veh, CPM / RFU, DNAJB6 / Fold change vs veh, DNAJB6 / RFU, CACNA2D3 / Fold change vs veh, CACNA2D3 / RFU, DTX4 / Fold change vs veh, DTX4 / RFU, TFCP2 / Fold change vs veh, TFCP2 / RFU, GMCL1 /// GMCL1P1 / Fold change vs veh, GMCL1 /// GMCL1P1 / RFU, AEBP2 / Fold change vs veh, AEBP2 / RFU, SNHG1 /// SNORD22 /// SNORD25 /// SNORD26 /// SNORD27 /// SNORD28 /// SNORD29 /// SNORD31 / Fold change vs veh, SNHG1 /// SNORD22 /// SNORD25 /// SNORD26 /// SNORD27 /// SNORD28 /// SNORD29 /// SNORD31 / Fold change (Aza/veh), C12orf56 (ProbeSet 11735607_a_at) / Fold change (ACY-1035/veh), C12orf56 (ProbeSet 11735607_a_at) / Fold change (Aza/veh), FGFR1OP (ProbeSet 11751329_s_at) / Fold change (ACY-1035/veh), FGFR1OP (ProbeSet 11751329_s_at) / Fold change (Aza/veh), VPS36 (ProbeSet 11739960_a_at) / Fold change (ACY-1035/veh), VPS36 (ProbeSet 11739960_a_at) / RFU SYPL1 (11715823_x_at) / Fold change /veh SYPL1 (11715823_x_at) / RFU IGFBP7 (11715501_s_at) / Fold change /veh IGFBP7 (11715501_s_at) / RFU REEP3 (11722064_at) / Fold change /veh REEP3 (11722064_at) / RFU IGLL1 (11728026_x_at) / Fold change /veh IGLL1 (11728026_x_at): dose or concentration left out as unconfirmed
Conditions: ProbeSet 11717308_a_at; LIST B

Question: How did the “RFU, WDR75” value turn out when `Nc1ncn([C@@H]2O[C@H](CO)[C@@H](O)[C@H]2O)c(=O)n1` [azacitidine] was run?
Answer: 348.11 RFU

— publication PMC5218480 (PLoS ONE, 2017)
